ChEMBL document CHEMBL1949581, “Anion inhibition studies of an α-carbonic anhydrase from the living fossil Astrosclera willeyana” (Bioorg Med Chem Lett, 2012)

Target: T1, Astrosclerin-3 (Astrosclera willeyana, UniProt A6YCJ1)
T1 sequence (A6YCJ1 whole entry): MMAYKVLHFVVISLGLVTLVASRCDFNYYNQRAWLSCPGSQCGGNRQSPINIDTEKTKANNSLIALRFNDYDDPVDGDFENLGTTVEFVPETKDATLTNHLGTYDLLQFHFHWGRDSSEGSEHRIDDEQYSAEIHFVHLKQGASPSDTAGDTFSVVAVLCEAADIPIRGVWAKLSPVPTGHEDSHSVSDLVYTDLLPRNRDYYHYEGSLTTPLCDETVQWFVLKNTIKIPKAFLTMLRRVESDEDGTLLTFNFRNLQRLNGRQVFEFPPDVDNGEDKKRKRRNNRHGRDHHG
Assay: biochemical
Assay type: cell-based
Description: Inhibition of Astrosclera willeyana recombinant GST-tagged astrosclerin 3 expressed in Escherichia coli BL21-DE3-RIPL cells preincubated for 15 mins measured for 10 to 100 secs by stopped flow CO2 hydration assay

CCN(CC)C(=S)S [DITIOCARB SODIUM] showed a Ki of 450 µM.

In the case of OB(O)c1ccccc1 [PHENYLBORONIC ACID], the Ki is reported as 9.6 µM.

[N-]=[N+]=[N-] [SODIUM AZIDE] was tested, and the Ki was 27800 µM.

In the case of O=C([O-])O.[Na+] [SODIUM BICARBONATE], the Ki is reported as 22800 µM.

Work on O=S([O-])O.[Na+] [SODIUM BISULFITE] yielded a Ki of 320 µM.

With [Br-].[Na+] [SODIUM BROMIDE] the Ki was 30600 µM.

Molecule O=C([O-])[O-].[Na+].[Na+] [SODIUM CARBONATE] has a Ki of 13500 µM.

Work on S=C(S)S [SODIUM CARBONOTRITHIOATE] yielded a Ki of 710 µM.

In the case of [Cl-].[Na+] [SODIUM CHLORIDE], the Ki is reported as 460 µM.

N#CO [SODIUM CYANATE] showed a Ki of 230 µM.

With [F-].[Na+] [SODIUM FLUORIDE] the Ki was 940 µM.

With S [SODIUM HYDROSULFIDE] the Ki was 490 µM.

For O=S(=O)(O)NS(=O)(=O)O [SODIUM IMINODISULFONATE], the Ki was 660 µM.

With [I-].[Na+] [SODIUM IODIDE] the Ki was 10400 µM.

O=[N+]([O-])[O-].[Na+] [SODIUM NITRATE] gave a Ki of 76400 µM.

Work on O=NO [SODIUM NITRITE] yielded a Ki of 63800 µM.

In the case of [O-][Cl+3]([O-])([O-])O [SODIUM PERCHLORATE], the Ki is reported as 5110 µM.

For O=S(=O)(O)OOS(=O)(=O)O [SODIUM PERSULFATE], the Ki was 70600 µM.

For O=P(O)(O)OP(=O)(O)O [SODIUM PYROPHOSPHATE], the Ki was 57700 µM.

In the case of O=S(=O)(O)OS(=O)(=O)O [SODIUM PYROSULFATE], the Ki is reported as 88100 µM.

Work on O=[Se](=O)(O)O [SODIUM SELENATE] yielded a Ki of 880 µM.

In the case of N#C[SeH] [SODIUM SELENOCYANATE], the Ki is reported as 770 µM.

Work on NS(=O)(=O)O [SODIUM SULFAMATE] yielded a Ki of 13 µM.

For O=S(=O)([O-])[O-].[Na+].[Na+] [SODIUM SULFATE ANHYDROUS], the Ki was 76300 µM.

O=[Te](=O)(O)O [SODIUM TELLURATE] was tested, and the Ki was 750 µM.

O=BOB(O)OB(O)OB=O [SODIUM TETRABORATE] gave a Ki of 21900 µM.

Molecule F[B-](F)(F)F.[Na+] [SODIUM TETRAFLUOROBORATE] has a Ki greater than 200000 µM.

NS(N)(=O)=O [SULFAMIDE] gave a Ki of 8.9 µM.
